Among the test systems are MCF7; NCI-H226; SW-620; RXF 393; Hs-578T; UACC-257; SF-539; NCI-H460; SNB-19; TK-10; OVCAR-5; HL-60; HCT-15; NCI-H522; BT-549; MDA-N; HOP-92; OVCAR-4; NCI/ADR-RES; SNB-75.
Common to all, as to assay: NCI-60 cell line screen, 48 h

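Briefly, cells in 96-well plates were exposed to five compound concentrations for 48 h, and endpoints were estimated by linear interpolation. Here, GI50 denotes the concentration required for 50% inhibition of growth.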 Calls of active or inactive are those of the source. Cut-off read from the data, not from the text of the source: active = GI50 up to about 1.1 µM and inactive = higher.

On to `COC(=O)c1nc2n(n1)-c1ccccc1C(=O)N(Cc1ccccc1)C2`, for which the GI50 with MCF7, in the experiment with NCI-H226, in the experiment with SW-620, in the experiment with RXF 393, in the experiment with Hs-578T and in the experiment with UACC-257 was > 100 µM (inactive) in each case. For the same compound, the GI50 with SF-539, in the experiment on NCI-H460, in the experiment on SNB-19, in the experiment with TK-10, with OVCAR-5 and in the experiment on HL-60 was > 100 µM (inactive) each time. Besides, the GI50 was > 100 µM with HCT-15; > 100 µM (inactive) in the experiment on NCI-H522; > 100 µM (inactive) in the experiment with BT-549; > 100 µM (inactive) in the experiment on MDA-N; > 100 µM (inactive) with HOP-92; > 100 µM (inactive) in the experiment on OVCAR-4. Further, in the experiment with NCI/ADR-RES, the GI50 is > 100 µM (inactive).

For the compound `CCC(CCCN)Nc1cc(OC)cc2cccnc12` (configuration not stated), the GI50 is 29.4 µM (inactive) with MCF7; > 100 µM (inactive) in the experiment on NCI-H226; > 100 µM (inactive) in the experiment on SW-620; 41.3 µM (inactive) in the experiment with RXF 393; > 100 µM (inactive) in the experiment on Hs-578T; 15.5 µM (inactive) in the experiment on UACC-257. Further, the GI50 in the experiment on SF-539 is > 100 µM (inactive); with NCI-H460 it was > 100 µM (inactive); in the experiment on SNB-19 it was > 100 µM (inactive); with TK-10, > 100 µM (inactive); with OVCAR-5, > 100 µM (inactive); in the experiment on HL-60, 21.9 µM (inactive). In addition, the GI50 with HCT-15 was > 100 µM; in the experiment with SNB-75, 31.1 µM (inactive); in the experiment with BT-549 it was > 100 µM (inactive); with MDA-N, > 100 µM (inactive); with HOP-92, > 100 µM (inactive); with OVCAR-4, 90.2 µM (inactive). In the experiment on NCI/ADR-RES, the GI50 was > 100 µM (inactive).

As for `O=C(CC1(O)C(=O)Nc2c(Cl)cc(Cl)cc21)c1cccc([N+](=O)[O-])c1` (configuration not stated), the GI50 is 11.9 µM (inactive) in the experiment with MCF7; 31.6 µM (inactive) in the experiment with NCI-H226; 20.1 µM (inactive) with SW-620; 28.6 µM (inactive) in the experiment on RXF 393; 30.6 µM (inactive) with Hs-578T; 16 µM (inactive) with UACC-257. Besides, the GI50 in the experiment with SF-539 was 27.9 µM (inactive); in the experiment with NCI-H460, 39.9 µM (inactive); in the experiment on SNB-19 it was > 73.1 µM (inactive); in the experiment with TK-10, > 55.8 µM (inactive); with OVCAR-5 it was 55.7 µM (inactive); in the experiment with HCT-15 it was 48.5 µM. The GI50 was 15.2 µM (inactive) with SNB-75; 67 µM (inactive) in the experiment on NCI-H522; 61 µM (inactive) in the experiment on BT-549; 18.9 µM (inactive) with MDA-N; 23.2 µM (inactive) in the experiment with HOP-92; 14.4 µM (inactive) in the experiment on OVCAR-4. Further, the GI50 in the experiment on NCI/ADR-RES is 29 µM (inactive).

In the case of `COc1cccc(C23CCCC(C2)NCC3Br)c1OC` (configuration not stated), the GI50 in the experiment with MCF7 is 21.6 µM (inactive); in the experiment on NCI-H226 it was 0.154 µM (active); in the experiment with SW-620, 35.6 µM (inactive); in the experiment on RXF 393 it was 92.3 µM (inactive); in the experiment with Hs-578T it was 19.7 µM (inactive); in the experiment on UACC-257 it was 8.39 µM (inactive). The GI50 in the experiment with NCI-H460 was 17.9 µM (inactive); in the experiment on SNB-19, 42.3 µM (inactive); in the experiment on TK-10, 36.9 µM (inactive); in the experiment on OVCAR-5, 56.2 µM (inactive); in the experiment on HCT-15, 40.9 µM; in the experiment on SNB-75 it was 28.1 µM (inactive). Further, the GI50 is 10.2 µM (inactive) with NCI-H522; 15.6 µM (inactive) with BT-549; 48.4 µM (inactive) in the experiment on MDA-N; 27.9 µM (inactive) in the experiment with HOP-92; 35 µM (inactive) in the experiment on OVCAR-4; 31.1 µM (inactive) with NCI/ADR-RES.

As for `N#Cc1c(O)nc2[nH]nc(/N=N\c3c(O)ccc4ccccc34)c2c1-c1ccc(Cl)cc1`, the GI50 was 0.147 µM (active) with MCF7; 0.4 µM (active) with NCI-H226; 0.163 µM (active) with SW-620; 0.198 µM (active) in the experiment with RXF 393; 0.968 µM (active) in the experiment on Hs-578T; 0.851 µM (active) with UACC-257. The GI50 with SF-539 was 0.29 µM (active); in the experiment with NCI-H460, 0.0792 µM (active); in the experiment with SNB-19 it was 0.211 µM (active); in the experiment with TK-10 it was 0.108 µM (active); with OVCAR-5 it was 0.834 µM (active); with HL-60, 0.0713 µM (active). In addition, the GI50 is 0.019 µM in the experiment with HCT-15; 0.248 µM (active) in the experiment with NCI-H522; 0.0826 µM (active) in the experiment on BT-549; 0.637 µM (active) in the experiment on MDA-N; 0.234 µM (active) with HOP-92; 0.241 µM (active) in the experiment with OVCAR-4. In the experiment with NCI/ADR-RES, the GI50 was 0.0975 µM (active).

With `CCN(CCO)CC1CCCC2CCCCC21` (configuration not stated), the GI50 with MCF7, in the experiment on NCI-H226, with SW-620, with RXF 393, in the experiment on Hs-578T and in the experiment on UACC-257 was > 100 µM (inactive) throughout. The GI50 in the experiment on SF-539 is > 100 µM (inactive); with NCI-H460, > 100 µM (inactive); in the experiment with SNB-19 it was > 100 µM (inactive); in the experiment with TK-10 it was > 100 µM (inactive); in the experiment on OVCAR-5 it was > 100 µM (inactive); in the experiment with HCT-15 it was > 100 µM. The GI50 in the experiment on SNB-75, in the experiment on NCI-H522, in the experiment on BT-549, in the experiment with MDA-N, in the experiment with HOP-92 and in the experiment on OVCAR-4 was > 100 µM (inactive) each time. In the experiment on NCI/ADR-RES, the GI50 is > 100 µM (inactive).

`CCC(C)(C)c1ccc(Oc2cccc(C(=O)O)c2)cc1`: the GI50 with MCF7 was 36.8 µM (inactive); in the experiment on NCI-H226, 39.9 µM (inactive); in the experiment with SW-620, 53 µM (inactive); in the experiment with RXF 393 it was 98.6 µM (inactive); with Hs-578T it was 44 µM (inactive); in the experiment on UACC-257 it was > 100 µM (inactive). The GI50 in the experiment on SF-539 is 33.5 µM (inactive); with NCI-H460 it was 44.4 µM (inactive); in the experiment with SNB-19 it was 85.5 µM (inactive); with TK-10, > 100 µM (inactive); with OVCAR-5 it was > 100 µM (inactive); with HL-60, 40.1 µM (inactive). Also, the GI50 is 39.5 µM with HCT-15; 37.9 µM (inactive) in the experiment with SNB-75; 28.2 µM (inactive) in the experiment with NCI-H522; 66.7 µM (inactive) with BT-549; 47.6 µM (inactive) in the experiment on MDA-N; 44.3 µM (inactive) with OVCAR-4. Moreover, in the experiment on NCI/ADR-RES, the GI50 was 50.1 µM (inactive).

As for `COC(=O)C1=C(O)C(C(=O)OC)[C@]2(O)[C@H](C(=O)OC)[C@H]1C[C@@H](c1ccc(F)cc1)[C@H]2C(=O)OC` (some centres not stated), the GI50 with MCF7 is 5.35 µM (inactive); with NCI-H226, 17.3 µM (inactive); in the experiment on SW-620 it was 13.2 µM (inactive); with RXF 393, 11.2 µM (inactive); in the experiment on Hs-578T, 21.7 µM (inactive); with UACC-257 it was 11.9 µM (inactive). Also, the GI50 is 18.2 µM (inactive) in the experiment with SF-539; 17.4 µM (inactive) in the experiment with NCI-H460; 19.1 µM (inactive) in the experiment with SNB-19; 21.9 µM (inactive) in the experiment with TK-10; 17.7 µM (inactive) in the experiment with OVCAR-5; 2.92 µM (inactive) in the experiment with HL-60. Besides, the GI50 in the experiment with HCT-15 is 12.3 µM; with SNB-75 it was 18.1 µM (inactive); with BT-549 it was 21.4 µM (inactive); in the experiment with MDA-N, 3.87 µM (inactive); with HOP-92, 27.3 µM (inactive); in the experiment with OVCAR-4 it was 22.4 µM (inactive). For the same compound, the GI50 in the experiment with NCI/ADR-RES is 4.98 µM (inactive).

As for `Cn1c(=O)c2nc(CCCc3ccc([N+](=O)[O-])cc3)[nH]c2n(C)c1=O`, the GI50 in the experiment on MCF7 is > 100 µM (inactive); in the experiment on NCI-H226, > 100 µM (inactive); in the experiment on RXF 393, > 100 µM (inactive); in the experiment with Hs-578T, > 100 µM (inactive); in the experiment with UACC-257 it was > 100 µM (inactive); with SF-539, 38.5 µM (inactive). Further, the GI50 in the experiment on NCI-H460 was 91.2 µM (inactive); in the experiment with SNB-19 it was > 100 µM (inactive); in the experiment on TK-10, > 100 µM (inactive); in the experiment on OVCAR-5, > 100 µM (inactive); in the experiment with HCT-15 it was > 100 µM; with SNB-75 it was > 100 µM (inactive). Moreover, the GI50 in the experiment on NCI-H522, with BT-549, in the experiment on MDA-N, in the experiment with HOP-92, in the experiment with OVCAR-4 and in the experiment on NCI/ADR-RES was > 100 µM (inactive) throughout.

In the case of `COc1cc(/C=C2/SC(c3ccccc3)N(c3cccc(NC(C)=O)c3)C2=O)cc(OC)c1OC` (configuration not stated), the GI50 in the experiment with MCF7 was 39.2 µM (inactive); with NCI-H226 it was 62.5 µM (inactive); in the experiment on SW-620, 57.1 µM (inactive); in the experiment on RXF 393, 24.8 µM (inactive); with Hs-578T, 23.9 µM (inactive); in the experiment on UACC-257, 67.8 µM (inactive). The GI50 is 49.3 µM (inactive) with SF-539; 71.9 µM (inactive) in the experiment with NCI-H460; 31 µM (inactive) with SNB-19; > 100 µM (inactive) in the experiment on TK-10; > 100 µM (inactive) in the experiment on OVCAR-5; 33.7 µM (inactive) with HL-60. The GI50 in the experiment with HCT-15 is 46.9 µM; with NCI-H522 it was 18.2 µM (inactive); in the experiment with BT-549 it was 44.7 µM (inactive); with MDA-N, 25.5 µM (inactive); in the experiment with HOP-92, 85.3 µM (inactive); with OVCAR-4, 66.2 µM (inactive). The GI50 in the experiment with NCI/ADR-RES is 40.7 µM (inactive).

On to `COCC12CCC(OC)C34C5CC6(O)C(OC)C=C(C5C6OC(=O)c5ccccc5)C(C(OC)C13)C4N(C)C2` (configuration not stated), for which the GI50 is > 100 µM (inactive) in the experiment with MCF7; > 100 µM (inactive) in the experiment with SW-620; > 100 µM (inactive) with RXF 393; 27.1 µM (inactive) with Hs-578T; > 100 µM (inactive) with UACC-257; > 100 µM (inactive) in the experiment on SF-539. The GI50 in the experiment on NCI-H460 was > 100 µM (inactive); in the experiment with SNB-19, > 100 µM (inactive); in the experiment with TK-10, > 100 µM (inactive); in the experiment on OVCAR-5, > 100 µM (inactive); with HL-60, > 100 µM (inactive); in the experiment with HCT-15 it was > 100 µM. Also, the GI50 in the experiment on SNB-75 is 32.1 µM (inactive); in the experiment with NCI-H522, > 100 µM (inactive); in the experiment on BT-549, > 100 µM (inactive); in the experiment on MDA-N, > 100 µM (inactive); in the experiment on HOP-92 it was > 100 µM (inactive); in the experiment on OVCAR-4, > 100 µM (inactive). Besides, the GI50 in the experiment on NCI/ADR-RES was > 100 µM (inactive).
